Laboratory results reported in US10065941B2, “Aminotriazine derivative and pharmaceutical composition comprising the same” (Shionogi & Co., Ltd., priority 2013, dated 2018).
pIC50: −log10 of the molar value.

Each compound was assayed against human P2X3 receptor (Homo sapiens (Human), UniProt P56373) (assay: Evaluation of human P2X3 receptor inhibitory activity (Test Example 1)). Conditions: C6BU-1 cell transfected with human P2X3 receptor gene, FLIPR 384.
human P2X3 receptor, sequence (P56373 whole entry): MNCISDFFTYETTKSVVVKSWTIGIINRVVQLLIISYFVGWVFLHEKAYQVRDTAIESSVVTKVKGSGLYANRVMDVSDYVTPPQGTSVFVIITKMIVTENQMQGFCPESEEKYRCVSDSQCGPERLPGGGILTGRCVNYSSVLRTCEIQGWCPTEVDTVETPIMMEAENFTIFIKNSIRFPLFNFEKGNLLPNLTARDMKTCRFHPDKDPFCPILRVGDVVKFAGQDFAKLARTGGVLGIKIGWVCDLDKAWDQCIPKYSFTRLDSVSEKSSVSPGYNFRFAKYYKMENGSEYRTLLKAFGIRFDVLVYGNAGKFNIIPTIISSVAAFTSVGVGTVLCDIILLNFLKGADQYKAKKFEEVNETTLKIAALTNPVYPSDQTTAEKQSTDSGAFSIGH
Assay type: cell-based
Summary of the method: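 C6BU-1 cells stably expressing human P2X3, loaded with 4 μM Fluo-3-AM 1 h at 37 °C, preincubated 5 min with test compound, then stimulated with 150 nM ATP solution (stock, pre-dispense) and monitored by FLIPR for 4 min. IC50 derived from maximum fluorescence ratio (post-ATP peak over baseline).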
COC(=O)C(C)(C)Cn1c(=O)[nH]/c(=N\c2ccc(Oc3ncns3)cc2)n(Cc2ccc(Cl)cc2)c1=O [Compound R-136] showed a pIC50 of 8.22.
Work on COC(=O)C(C)(C)Cn1c(=O)[nH]/c(=N\c2ccc(Oc3nc(C)ns3)cc2)n(Cc2ccc(Cl)cc2)c1=O [Compound R-137] yielded a pIC50 of 8.22.
COC(=O)[C@@H](C)Cn1c(=O)[nH]/c(=N\c2ccc(N3CCCCC3)c(C)c2)n(Cc2ccc(Cl)cc2)c1=O [Compound R-138] showed a pIC50 of 7.11.
COC(=O)C(C)(C)Cn1c(=O)[nH]/c(=N\c2ccc(N3CCCCC3)c(C)c2)n(Cc2ccc(Cl)cc2)c1=O [Compound R-139] gave a pIC50 of 6.92.
With COC(=O)[C@@H](C)Cn1c(=O)[nH]/c(=N\c2ccc(N3CCCCC3)c(F)c2)n(Cc2ccc(Cl)cc2)c1=O [Compound R-140] the pIC50 was 7.43.
COC(=O)C(C)(C)Cn1c(=O)[nH]/c(=N\c2ccc(N3CCCCC3)c(F)c2)n(Cc2ccc(Cl)cc2)c1=O [Compound R-141] showed a pIC50 of 7.33.
Work on Cc1cc(/N=c2\[nH]c(=O)n(C[C@H](C)C(=O)O)c(=O)n2Cc2ccc(Cl)cc2)ccc1N1CCCCC1 [Compound R-142] yielded a pIC50 of 7.16.
Cc1cc(/N=c2\[nH]c(=O)n(CC(C)(C)C(=O)O)c(=O)n2Cc2ccc(Cl)cc2)ccc1N1CCCCC1 [Compound R-143] was tested, and the pIC50 was 7.01.
C[C@@H](Cn1c(=O)[nH]/c(=N\c2ccc(Oc3nc4ccccc4o3)cc2)n(Cc2ccc(Cl)cc2)c1=O)C(=O)O [Compound R-144] was tested, and the pIC50 was 8.30.
Compound C[C@@H](Cn1c(=O)[nH]/c(=N\c2ccc(Oc3nc(C(F)(F)F)ns3)cc2)n(Cc2ccc(Cl)cc2)c1=O)C(=O)O [Compound R-145] has a pIC50 of 7.96.
With C[C@@H](Cn1c(=O)[nH]/c(=N\c2ccc(N3CCCCC3)c(F)c2)n(Cc2ccc(Cl)cc2)c1=O)C(=O)O [Compound R-146] the pIC50 was 7.48.
With CC(C)(Cn1c(=O)[nH]/c(=N\c2ccc(N3CCCCC3)c(F)c2)n(Cc2ccc(Cl)cc2)c1=O)C(=O)O [Compound R-147] the pIC50 was 7.29.
COC(=O)C(C)(C)Cn1c(=O)[nH]/c(=N\c2ccc(Oc3cccnn3)cc2)n(Cc2ccc(Cl)cc2)c1=O [Compound R-148] gave a pIC50 of 8.30.
In the case of COC(=O)C(C)(C)Cn1c(=O)[nH]/c(=N\c2ccc(Oc3ncc(C)s3)cc2)n(Cc2ccc(Cl)cc2)c1=O [Compound R-149], the pIC50 was 7.92.
With COC(=O)[C@H](C)[C@H](C)n1c(=O)[nH]/c(=N\c2ccc(Oc3ccnc(Cl)c3)cc2)n(Cc2ccc(Cl)cc2)c1=O [Compound R-150] the pIC50 was 7.74.
CC(C)(Cn1c(=O)[nH]/c(=N\c2ccc(Oc3cccnn3)cc2)n(Cc2ccc(Cl)cc2)c1=O)C(=O)O [Compound R-151] gave a pIC50 of 7.96.
Work on COC(=O)[C@@H](C)Cn1c(=O)[nH]/c(=N\c2ccc(Oc3ccc(CO)nc3)cc2)n(Cc2ccc(Cl)cc2)c1=O [Compound R-152] yielded a pIC50 of 8.30.
Cc1cnc(Oc2ccc(/N=c3\[nH]c(=O)n(CC(C)(C)C(=O)O)c(=O)n3Cc3ccc(Cl)cc3)cc2)s1 [Compound R-153] gave a pIC50 of 8.10.
Compound C[C@@H](Cn1c(=O)[nH]/c(=N\c2ccc(Oc3ccc(CO)nc3)cc2)n(Cc2ccc(Cl)cc2)c1=O)C(=O)O [Compound R-155] has a pIC50 of 8.00.
For COC(=O)[C@H](C)[C@H](C)n1c(=O)[nH]/c(=N\c2ccc(Oc3cc(F)nc(F)c3)cc2)n(Cc2ccc(Cl)cc2)c1=O [Compound R-156], the pIC50 was 7.46.
Compound C[C@@H](C(=O)O)[C@H](C)n1c(=O)[nH]/c(=N\c2ccc(Oc3cc(F)nc(F)c3)cc2)n(Cc2ccc(Cl)cc2)c1=O [Compound R-157] has a pIC50 of 8.22.
COC(=O)[C@H](C)[C@H](C)n1c(=O)[nH]/c(=N\c2ccc(Oc3cnccn3)c(C)c2)n(Cc2ccc(Cl)cc2)c1=O [Compound R-158] gave a pIC50 of 7.92.
Work on COC(=O)[C@H](C)[C@H](C)n1c(=O)[nH]/c(=N\c2ccc(Oc3cnc(Cl)cn3)cc2)n(Cc2ccc(Cl)cc2)c1=O [Compound R-159] yielded a pIC50 of 7.74.
With Cc1nsc(Oc2ccc(/N=c3\[nH]c(=O)n(C[C@H](C)C(=O)O)c(=O)n3Cc3ccc(Cl)cc3)cc2)n1 [Compound R-160] the pIC50 was 8.10.
Cc1cc(/N=c2\[nH]c(=O)n([C@@H](C)[C@@H](C)C(=O)O)c(=O)n2Cc2ccc(Cl)cc2)ccc1Oc1cnccn1 [Compound R-161] was tested, and the pIC50 was 8.00.
In the case of C[C@@H](C(=O)O)[C@H](C)n1c(=O)[nH]/c(=N\c2ccc(Oc3cnc(Cl)cn3)cc2)n(Cc2ccc(Cl)cc2)c1=O [Compound R-162], the pIC50 was 8.22.
CC(C)(Cn1c(=O)[nH]/c(=N\c2ccc(Oc3ncns3)cc2)n(Cc2ccc(Cl)cc2)c1=O)C(=O)O [Compound R-163] was tested, and the pIC50 was 7.85.
For C[C@@H](Cn1c(=O)[nH]/c(=N\c2ccc(Oc3ncccn3)c(F)c2)n(Cc2ccc(Cl)cc2)c1=O)C(=O)O [Compound R-164], the pIC50 was 8.00.
With CC(C)(Cn1c(=O)[nH]/c(=N\c2ccc(Oc3ncccn3)c(F)c2)n(Cc2ccc(Cl)cc2)c1=O)C(=O)O [Compound R-165] the pIC50 was 7.85.
With CCn1c(=O)[nH]/c(=N\c2ccc(Oc3ccc(Cl)nc3C#N)cc2)n(Cc2ccc(Cl)cc2)c1=O [Compound R-166] the pIC50 was 7.32.
Work on COC(=O)[C@H](C)[C@H](C)n1c(=O)[nH]/c(=N\c2ccc(Oc3cnccn3)cc2)n(Cc2ccc(Cl)cc2)c1=O [Compound R-167] yielded a pIC50 of 7.96.
C[C@@H](C(=O)O)[C@H](C)n1c(=O)[nH]/c(=N\c2ccc(Oc3cnccn3)cc2)n(Cc2ccc(Cl)cc2)c1=O [Compound R-168] was tested, and the pIC50 was 7.77.
With CCn1c(=O)[nH]/c(=N\c2ccc(Oc3ccc(Cl)nc3C(=O)O)cc2)n(Cc2ccc(Cl)cc2)c1=O [Compound R-169] the pIC50 was 6.52.
In the case of O=c1[nH]c(=O)n(Cc2ccc(Cl)cc2)/c(=N/c2ccc(Oc3ccc(F)cn3)cc2)[nH]1 [Compound R-170], the pIC50 was 6.71.
For CCOC(=O)C[C@H](O)Cn1c(=O)[nH]/c(=N\c2ccc(OC(C)C)c(Cl)c2)n(Cc2ccc(Cl)cc2)c1=O [Compound R-171], the pIC50 was 7.48.
CCOC(=O)C[C@H](O)Cn1c(=O)[nH]/c(=N\c2ccc3oc(CC)c(C)c3c2)n(Cc2ccc(Cl)cc2)c1=O [Compound R-172] was tested, and the pIC50 was 7.48.
CCc1oc2ccc(/N=c3\[nH]c(=O)[nH]c(=O)n3Cc3ccc(Cl)cc3)cc2c1C [Compound R-173] showed a pIC50 of 6.42.
Compound COC(=O)[C@@H](C)Cn1c(=O)[nH]/c(=N\c2ccc(Oc3ccc(C)nn3)c(F)c2)n(Cc2ccc(Cl)cc2)c1=O [Compound R-174] has a pIC50 of 8.00.
In the case of COC(=O)C(C)(C)Cn1c(=O)[nH]/c(=N\c2ccc(Oc3ccc(C)nn3)c(F)c2)n(Cc2ccc(Cl)cc2)c1=O [Compound R-175], the pIC50 was 7.72.
In the case of CC(C)(Cn1c(=O)[nH]/c(=N\c2ccc(Oc3cnc(C(F)(F)F)cn3)cc2)n(Cc2ccc(Cl)cc2)c1=O)C(=O)O [Compound R-176], the pIC50 was 8.15.
COc1cc(Oc2ccc(/N=c3\[nH]c(=O)n([C@@H](C)[C@@H](C)C(=O)O)c(=O)n3Cc3ccc(Cl)cc3)cc2)cc(F)n1 [Compound R-177] was tested, and the pIC50 was 8.30.
Compound CCc1oc2ccc(/N=c3\[nH]c(=O)n(C[C@@H](O)CC(=O)O)c(=O)n3Cc3ccc(Cl)cc3)cc2c1C [Compound R-178] has a pIC50 of 7.35.
For CC(C)Oc1ccc(/N=c2\[nH]c(=O)n(C[C@@H](O)CC(=O)O)c(=O)n2Cc2ccc(Cl)cc2)cc1Cl [Compound R-179], the pIC50 was 7.25.
Cc1ccc(Oc2ccc(/N=c3\[nH]c(=O)n(C[C@H](C)C(=O)O)c(=O)n3Cc3ccc(Cl)cc3)cc2F)nn1 [Compound R-180] showed a pIC50 of 8.15.
Compound Cc1ccc(Oc2ccc(/N=c3\[nH]c(=O)n(CC(C)(C)C(=O)O)c(=O)n3Cc3ccc(Cl)cc3)cc2F)nn1 [Compound R-181] has a pIC50 of 8.15.
Compound COC(=O)[C@H](C)[C@H](C)n1c(=O)[nH]/c(=N\c2ccc(Oc3ncc(C)s3)cc2)n(Cc2ccc(Cl)cc2)c1=O [Compound R-182] has a pIC50 of 7.59.
For Cc1cnc(Oc2ccc(/N=c3\[nH]c(=O)n([C@@H](C)[C@@H](C)C(=O)O)c(=O)n3Cc3ccc(Cl)cc3)cc2)s1 [Compound R-183], the pIC50 was 8.15.
In the case of COC(=O)[C@@H](C)Cn1c(=O)[nH]/c(=N\c2ccc(Oc3cncc(C)c3)cc2)n(Cc2ccc(Cl)cc2)c1=O [Compound R-184], the pIC50 was 8.00.
Work on Cc1cncc(Oc2ccc(/N=c3\[nH]c(=O)n(C[C@H](C)C(=O)O)c(=O)n3Cc3ccc(Cl)cc3)cc2)c1 [Compound R-185] yielded a pIC50 of 7.92.
Work on COC(=O)[C@H](C)[C@H](C)n1c(=O)[nH]/c(=N\c2ccc(Oc3cncc(F)c3)c(C)c2)n(Cc2ccc(Cl)cc2)c1=O [Compound R-186] yielded a pIC50 of 7.59.
With COC(=O)[C@H](C)[C@H](C)n1c(=O)[nH]/c(=N\c2ccc(Oc3cncc(F)c3)c(F)c2)n(Cc2ccc(Cl)cc2)c1=O [Compound R-187] the pIC50 was 7.68.
For Cc1cc(/N=c2\[nH]c(=O)n([C@@H](C)[C@@H](C)C(=O)O)c(=O)n2Cc2ccc(Cl)cc2)ccc1Oc1cncc(F)c1 [Compound R-188], the pIC50 was 8.05.
Compound C[C@@H](C(=O)O)[C@H](C)n1c(=O)[nH]/c(=N\c2ccc(Oc3cncc(F)c3)c(F)c2)n(Cc2ccc(Cl)cc2)c1=O [Compound R-189] has a pIC50 of 8.10.
COc1ccc(Oc2ccc(/N=c3\[nH]c(=O)n(CC(C)(C)C(=O)O)c(=O)n3Cc3ccc(Cl)cc3)cc2)nn1 [Compound R-190] showed a pIC50 of 8.05.
COc1ccc(Oc2ccc(/N=c3\[nH]c(=O)n([C@@H](C)[C@@H](C)C(=O)O)c(=O)n3Cc3ccc(Cl)cc3)cc2)nn1 [Compound R-191] showed a pIC50 of 7.92.
C[C@@H](Cn1c(=O)[nH]/c(=N\c2ccc(Oc3nc4ccccc4s3)cc2)n(Cc2ccc(Cl)cc2)c1=O)C(=O)O [Compound R-192] gave a pIC50 of 8.40.
Compound COC(=O)C(C)(C)Cn1c(=O)[nH]/c(=N\c2ccc(Oc3cncc(C)c3)cc2)n(Cc2ccc(Cl)cc2)c1=O [Compound R-193] has a pIC50 of 7.96.
Compound Cc1cncc(Oc2ccc(/N=c3\[nH]c(=O)n(CC(C)(C)C(=O)O)c(=O)n3Cc3ccc(Cl)cc3)cc2)c1 [Compound R-194] has a pIC50 of 7.89.
Work on C[C@@H](Cn1c(=O)[nH]/c(=N\c2ccc(Oc3ncns3)cc2)n(Cc2ccc(Cl)cc2)c1=O)C(=O)O [Compound R-195] yielded a pIC50 of 8.05.
Work on C[C@@H](Cn1c(=O)[nH]/c(=N\c2ccc(Oc3ccc(F)nn3)cc2)n(Cc2ccc(Cl)cc2)c1=O)C(=O)O [Compound R-196] yielded a pIC50 of 7.96.
